Structures can show the parent of a compound that is named as a salt.
Columns and labels:
interleukin (IL)-6 = test: Human immune cell line THP-1 in vitro assay: IL-6 in supernatant by ELISA after co-treatment with LPS; format: cell-based; settings: PMA-differentiated THP1-XBlue cells co-treated with E. coli LPS and composition, 24 hours; percentage to LPS-treated cells (=100%)
Protocol: (§1) Human Immune Cell Line THP-1 Invitro Assay The following procedure was used to determine the anti-inflammation efficacy: THP1-XBlue™ (Cat No: thpx-sp, InvivoGen) cells were cultured as suspense in RPMI 1640 medium supplemented with 10% FBS, penicillin (10 U/mL)-streptomycin (10 μg/ML). Cells were differentiated in 24-well plates at the density of 5×10^5 cells/well with 100 nM PMA for 72 hours. Cells were then co-treated with pure E. coli ipopolysaccharides (LPS) and various compositions. After 24 hours, the supernatants were collected and measured for interleukin (IL)-6 as a pro-inflammatory biomarker using enzyme-linked immunosorbent assay (ELISA). IL-6 is a cytokine, or cell-signaling protein, encoded in humans by the IL-6 gene which is both pro-inflammatory and anti-inflammatory and which stimulates the immune response to inflammation. Expression of IL-6 was calculated as the percentage to LPS-treated cells which was designated as 100%. It can be considered as no anti-inflammatory effect if the calculated result is over 100%. Cell viability was calculated as the percentage to non-treated cells which was designated as 100%. P value was analyzed by Student's t-test comparing combination groups and individual compound groups (expression of IL-6).

THP1-XBlue cells = test: Cell viability in the THP-1 in vitro assay; format: cell-based, human; settings: PMA-differentiated THP1-XBlue cells co-treated with LPS and composition, 24 hours; percentage to non-treated cells (=100%)
Protocol: as §1, with “The” for “Human Immune Cell Line THP-1 Invitro Assay The”, “IL-6). P value <0.05 indicates synergistic effect.” for “IL-6).”

Row | SMILES | expression of IL-6 (%) (interleukin (IL)-6) | Cell Viability (%) (THP1-XBlue cells)
1 | Cc1cc(CC(C)CC(C)(C)C)n(O)c(=O)c1 (stereo not shown) [B, 1-hydroxy-4-methyl-6-(2,4,4-trimethylpentyl)-2(1H) pyridinone monoethanolamine salt] | 76.4 | 81
2 | OCc1ccccc1O[C@@H]1O[C@H](CO)[C@@H](O)[C@H](O)[C@H]1O [C, salicin] | 65.0 | 86

— US20220401352A1, “A COSMETIC COMPOSITION” (Conopco, Inc., d/b/a UNILEVER, priority 2019, published 2022)
